In patent publication US20240207329A1, “METHODS OF TREATING ADENOCARCINOMA WITH HUMAN MICROBIOTA DERIVED N-ACYL AMIDES” (ICAHN SCHOOL OF MEDICINE AT MOUNT SINAI, priority 2021, published 2024):

Experiments:
[1] = system: Tumor organoids; assay: Treatment of mouse tumor organoids with N-acyl amides, end-point viability by CellTiter-Glo; format: cell-based, mice; details: for IC50: mouse tumor organoids, viability 3 days post-drug addition, CellTiter-Glo, triplicate; for liver cancer growth and/or survival: tumor organoid dose-response curves, FIG. 7
Description: Tumor organoids were prepared from the animal model described in Example 1 (i.e. tissue from control animals was isolated at 24 weeks and tumor organoids prepared therefrom). Tumor organoids were generated according to protocols known in the art (Broutier, L., Andersson-Rolf, A., Hindley, C J., Boj, S F., Clevers, H., et al., Culture and establishment of self-renewing human and mouse adult liver and pancreas 3D organoids and their genetic manipulation. Nat Protoc. 2016. 11(9): 1724-43 and Broutier, L. Mastrogiovanni, G., Verstegen, M M., Francies, H E., Gavarro, L M., et al., Human primary liver cancer-derived organoid cultures for disease modeling and drug screening. Nat Med. 2017 23(12): 1424-1435). Liver biopsies were digested in sterile PBS containing 0.125 mg/mL collagenase IV, 0.125 mg/mL dispase II, and 0.1 mg/mL DNaseI. Digestions were performed at 37° C. for at least 4 hours. Tissue dissociate was filtered through a 70 μm strainer and washed with basal media (Advanced DMEM/F12, 1% L-glutamine, 1% penstrep, 1 mM HEPES). Cells were counted, washed, and resuspended at 50,000 cells/50 μL matrigel. 50 μL matrigel droplets were plated in 24-well plates and allowed to polymerize for 15 minutes at 37° C. Tumor dissociate was cultured in tumor media (basal media, 1:50 B27, 1 mM N-acetylcysteine, 10 mM nicotinamide, 10 nM recombinant human [Leu^15]-gastrin I, 50 ng/mL recombinant murine EGF, 100 ng/mL recombinant human FGF10, and 50 ng/mL recombinant human HGF) until organoids formed. To passage, organoids were removed from matrigel in basal media, spun down at 300 g for 5 minutes, mechanically broken via passage through a 21 g needle, washed in basal media, and re-plated in matrigel.
96-wells plates were coated with a 50:50 solution of matrigel:basal media, which was allowed to polymerize for 15 minutes at 37° C. Tumor organoids were mechanically broken as described above, counted, and seeded at 1,000 cells/well in tumor media. Following overnight incubation, serial drug dilutions were added to the tumor organoids. […] End-point viability was analyzed 3-days post-drug addition using CellTiter-Glo. Each treatment was performed in triplicate.

[2] = system: Human hepatocellular cancer (HCC) organoids; assay: Treatment of human HCC and cholangiocarcinoma organoids, anti-tumor effects; format: cell-based; details: triplicate
Description: Human hepatocellular cancer (HCC) organoids were prepared from patients with non alcoholic steatohpepatitis (NASH), hepatitis B virus (HBV) and hepatitis C virus (HCV). The HCC organoids were generated according to protocols known in the art (Broutier, L., Andersson-Rolf, A., Hindley, C J., Boj, S F., Clevers, H., et al., Culture and establishment of self-renewing human and mouse adult liver and pancreas 3D organoids and their genetic manipulation. Nat Protoc. 2016. 11(9): 1724-43 and Broutier, L. Mastrogiovanni, G., Verstegen, M M., Francies, H E., Gavarro, L M., et al., Human primary liver cancer-derived organoid cultures for disease modeling and drug screening. Nat Med. 2017 23(12): 1424-1435). Organoids were also prepared from a single patient with cholangiocarcinoma (ICC). N-oleoyl serinol and N-oleoyl glycine were assayed for anti-tumor effects. Each treatment was performed in triplicate. […] N-oleoyl serinol was active specifically against HCCC organoids from patients with NASH.

Row | IC50 ([1]; 72 h) [nM] | IC50 [1] [nM] | SMILES | liver cancer growth and/or survival [1] | anti-tumor effects ([2]; all organoid cell lines (HCC from NASH, HBV, HCV patients; cholangiocarcinoma)) | anti-tumor effects ([2]; HCC organoids from patients with NASH)
1 | 33.3 | – | CCCCCCCC/C=C\CCCCCCCC(=O)NC(CO)CO [N-oleoyl serinol] | inhibit or reduce | – | active
2 | – | > 100000 | CCCCCCCCCCCCCCCC(=O)NCC(=O)O [N-palmitoyl glycine] | – | – | –
3 | > 100000 | – | CCCCCCCCCCCCCCCC(=O)NC(CO)CO [palmitoyl serinol] | – | – | –

Continued, molecule first:

Row | SMILES | IC50 ([1]; 72 h) [nM] | IC50 [1] [nM] | liver cancer growth and/or survival [1] | anti-tumor effects ([2]; all organoid cell lines (HCC from NASH, HBV, HCV patients; cholangiocarcinoma)) | anti-tumor effects ([2]; HCC organoids from patients with NASH)
4 | CCCCCCCC/C=C\CCCCCCCC(=O)NCCO [N-oleoyl ethanolamide, reference compound] | 126 | – | inhibit or reduce | – | –
5 | CCCCCCCC/C=C\CCCCCCCC(=O)NCC(=O)O [N-oleoyl glycine] | > 100000 | – | – | inactive | –
